Source: patent US9114159B2, “Transcription factors in neuronal dendrites-dendritic protein synthesis and cell death” (The Trustees of the University of Pennsylvania, priority 2005, dated 2015)
“Also recorded” adds a separate entry of the source. Like-named read-outs stand apart in the source and are kept apart here. *1 amine or outer side, *2 acyl side, *3 side chain or, on linkers, in order; H or OH if unused. Where a SMILES comes first, the peptide text is derived from it. Bridges are numbered along the chain shown (N, C = ends). Roman numbers before positions name the chains, in order. [ ]: non-standard residue; d: D form. Actinocin(9to1) = Cc1c2oc3c(C)ccc(C(=O)[*:1])c3nc-2c(C(=O)[*:2])c(N)c1=O; NMeV = CN[C@H](C(=O)O)C(C)C; Sar = CNCC(=O)O

Tests used:
[1] = test system: primary rat hippocampal neurons; experiment: Elk-1 immunocytochemistry after mGluR stimulation; format: cell-based; conditions: 30-minute application, 50 μM, n=7
Description: Immunocytochemistry/immunohistochemistry: Three polyclonal antibodies raised against Elk-1 (Santa Cruz Biotechnology, Santa Cruz, Calif.; Cell Signaling Technology, Beverly, Mass.) were used to detect Elk-1 protein in primary rat hippocampal cultures and in adult rat brain sections. A monoclonal antibody raised against a synthetic phospho-peptide of Elk-1 was used to detect Elk-1 protein phosphorylated at S383 (Cell Signaling Technology). […] For stimulation experiments, cultured neurons were placed in warm Hals buffer (pH=7.4) and treated with the Group I mGluR agonist, dihydrophenylglycine (DHPG; Tocris Cookson Inc., Ellisville, Mo.) at a final concentration of 50 μM for 30 minutes at 37° C. prior to fixation and immunocytochemistry.

[2] = test system: primary rat corticol neurons; experiment: Elk-1 association with mitochondria, Western blotting of mitochondrial fractions; format: cell-based; conditions: Western blotting after drug application
Description: Mitochondrial fractionation for western blots: A mitochondrial isolation kit (Pierce) was used according to the manufacturer's instructions to isolate mitochondria from primary neuronal cultures. Once isolated, mitochondria were lysed in buffer containing: 150 mM NaCl, 1% NP-40, 0.5% Deoxycholic acid, 0.1% SDS, 50 mM Tris, 10 ug/mL Aprotinin, 5 ug/mL Leupeptin, 1 mM sodium orthovanidate, 1 mM PMSF and 100 ug/mL TPCK. Lysate was then used for western blotting with the following antibodies: Elk-1 (Cell Signaling Technology), VDAC 1 (Santa Cruz Biotechnology), NeuN (Abcam).
To examine whether specific cellular insults could increase or decrease the association between Elk-1 and mitochondria, primary rat corticol neurons were exposed to a variety of compounds known to induce cell death in neurons, and mitochondrial fractions were then isolated and used for Western blotting.

[3] = test system: primary rat hippocampal neurons; experiment: DAPI and Hoechst nuclear stains for pycnotic nuclei; format: cell-based; conditions: cells treated for 3 hours with 30 μM
Description: FIG. 5A is a graph depicting cell counts after Elk-1 over-expression. Neurons electroporated with Elk-1 in a pcDNA vector were stained with a MAP2 antibody at 48, 72, 96 and 168 hours after plating. Two 5× images of MAP2 immunoreactive neurons were taken for each experiment, and MAP2 positive neurons were counted manually. Shown are the percent decreases in MAP2 positive neurons compared to control. (Line=best fit) FIG. 5B are images of MAP2 immunoreactivity from neurons electroporated with a control pcDNA vector (right image) or with Elk-1 in pcDNA (left image). FIG. […] Scale bar=20 μm.
In order to assess whether neurons were dying via apoptosis or necrosis following Elk-1 over-expression, DAPI and Hoechst nuclear stains were used to look for evidence of pycnotic nuclei, characteristic of an apoptotic phenotype.

[4] = test system: primary rat hippocampal neurons; conditions: for effect on Elk-1 induced cell death: Elk-1 GFP mRNA photoporated into dendrites
Description: Cultured primary rat hippocampal neurons were bathed in 10-15 μg capped mRNA in 1 ml extracellular saline at 37° C. In some cases, neurons were pre-incubated with the translation inhibitor, anisomycin (5 μM), the mitochondrial PTP inhibitor, bongkrekic (BKA; 25 μM), or the transcriptional inhibitor, actinomycin D (1 μg/ml).
Samples were imaged and photoporated using a Prairie Ultima multiphoton scan head attached to an Olympus BX61 fixed-stage upright microscope equipped with a 40× water immersion lens (LUMPlanFI/IR, N.A. 0.8). 8 to 16 points were selected over a 2 μm×2 μm area for photoporation. A Ti-sapphire laser (Mai-Tai®, Spectral-Physics, Mountain View, Calif.) was used to make transient poration sites for 5 milliseconds at 30 mW (at back aperture of lens) energy. After photoporation, samples were transferred to an Olympus IX81 inverted microscope for simultaneous GFP fluorescence and DIC imaging. All images were processed with Metamorph (Universal Imaging Corporation) image processing software. For cell death assays, a LIVE/DEAD cell viability/cytotoxicity kit (Molecular Probes) was used according to the manufacturer's instructions.
A cell viability/cytotoxicity assay (Invitrogen Molecular Probes, Carlsbad, Calif.) was used to confirm the morphological observations of cell death following Elk-1 GFP mRNA photoporation. […] Obvious morphological signs of cell death may take hours to become apparent, whereas the use of a nuclear dye allows rapid identification of neurons that are in the process of dying.

## N[C@H](C(=O)O)c1cc(O)cc(O)c1 [DHPG, dihydrophenylglycine]
[1]
  Elk-1 immunoreactivity in both cell somas and dendrites: substantial increase

## CC[C@@]1(O)C(=O)OCc2c1cc1n(c2=O)Cc2cc3ccccc3nc2-1 [camptothecin]
[2]
  Elk-1 association with mitochondria: increased its association with mitochondria
[3]
  pycnotic nuclei: presence of pycnotic nuclei

## CO[C@H](C/C=C\C=C\CC/C=C/C[C@H](C)/C=C/C(=C\C(=O)O)CC(=O)O)/C(C)=C\C=C(/C)C(=O)O [BKA, bongkrekic acid]
[4]; pre-incubation with mitochondrial PTP inhibitor 25 μM, n=10
  effect on Elk-1 induced cell death: blocked; also recorded: cells did not die

## Cc1c2oc3c(C)ccc(C(=O)N[C@@H]4C(=O)N[C@H](C(C)C)C(=O)N5CCC[C@H]5C(=O)N(C)CC(=O)N(C)[C@@H](C(C)C)C(=O)O[C@@H]4C)c3nc-2c(C(=O)N[C@@H]2C(=O)N[C@H](C(C)C)C(=O)N3CCC[C@H]3C(=O)N(C)CC(=O)N(C)[C@@H](C(C)C)C(=O)O[C@@H]2C)c(N)c1=O [actinomycin D] (I: T[dV]P[Sar][NMeV] / II: T[dV]P[Sar][NMeV]; ester I:1-I:C, II:1-II:C; linker I:N-II:N via Actinocin(9to1))
[4]; pre-incubation with transcriptional inhibitor 1 μg/ml, n=7
  effect on Elk-1 induced cell death: inhibited

## COc1ccc(C[C@H]2NC[C@H](O)[C@H]2OC(C)=O)cc1 [anisomycin]
[4]; pre-incubation with translational inhibitor 5 μM, Elk-1 GFP mRNA photoporated
  effect on Elk-1-induced cell death: blocked; also recorded: absence of cell death
